Test results as given in patent US20260376299A1, “METHODS OF TREATING ACUTE MYELOID LEUKEMIA” (The Regents of the University of Colorado, A Body Corporate, priority 2022, published 2026).

Key:
m-LSCs = assay: Colony-forming unit (CFU) assay on m-LSCs; type: cell-based, human; conditions: for potency against m-LSCs, CdA versus BRQ and MTX / selectivity for m-LSCs over p-LSCs and normal HSPCs: CFU assay; for potency against m-LSCs, CdA versus BRQ and MTX: FIG. 6D; for selectivity for m-LSCs over p-LSCs and normal HSPCs: FIG. 6C
Experimental: FIG. 6C and FIG. 6D show the impact of chemotherapy agents AraC, DNR, DHODH inhibitor brequinar (BRQ), and TYMS inhibitor methotrexate (MTX) on the CFU potential of m-LSCs, p-LSCs and CD34+ HSPCs. […] IP, intraperitoneal; OG, oral gavage. […] Engraft % was determined by % of hCD45+/mCD45− cells within total viable bone marrow mononuclear cells. Each dot represents a unique mouse. For PDX of AML-13, control (n=11), VEN+AZA(n=9), CdA(n=10), VEN+AZA+CdA(n=10). For PDX of AML-07, control(n=11), VEN+AZA(n=9), CdA(n=12), VEN+AZA+CdA(n=9). Box plots represent median+interquartile range. Kruskal-Wallis test was used. ns, not significant. […] Engraft % was determined by % of hCD45+/mCD45− cells within total viable spleen mononuclear cells. hCD45+ count was determined by direct quantification of hCD45+/mCD45− cells within a set volume of spleen harvest using flow cytometry. Each dot represents a unique mouse. Control (n=6), VEN+AZA(n=6), CdA(n=6), VEN+AZA+CdA(n=6). Box plots represent median+/−interquartile. Kruskal-Wallis test was used. ns, not significant.
(§1) Methotrexate (MTX), brequinar (BRQ), and cladribine (CdA) were selected based on their activities in inhibiting one-carbon metabolism enzymes DHFR and TYMS, pyrimidine synthesis enzyme DHODH, and purine-based DNA/RNA synthesis, respectively. Colony-forming unit assays were performed on m-LSCs and p-LSCs isolated from Mono, Multi-MMP, and Prim specimens, along with normal CD34+ hematopoietic stem and progenitor cells (HSPC) from two healthy donors.
Freshly sorted m-LSCs from primary AMLs or prepared CD34+ HSPCs isolated from normal mobilized peripheral samples were plated in human methylcellulose (R&D systems) at about 100 K/ml and 2 K/ml, respectively. Small molecule inhibitors were directly added into the methylcellulose at the desired final concentration at the plating. Colonies were counted 2-3 weeks after the initial plating.

p-LSCs = assay: Colony-forming unit (CFU) assay on p-LSCs; type: cell-based, human
Experimental: (§2) FIG. 6C and FIG. 6D show the impact of chemotherapy agents AraC, DNR, DHODH inhibitor brequinar (BRQ), and TYMS inhibitor methotrexate (MTX) on the CFU potential of m-LSCs, p-LSCs and CD34+ HSPCs. […] IP, intraperitoneal; OG, oral gavage. […] Engraft % was determined by % of hCD45+/mCD45− cells within total viable bone marrow mononuclear cells. Each dot represents a unique mouse. For PDX of AML-13, control (n=11), VEN+AZA(n=9), CdA(n=10), VEN+AZA+CdA(n=10). For PDX of AML-07, control(n=11), VEN+AZA(n=9), CdA(n=12), VEN+AZA+CdA(n=9). Box plots represent median+interquartile range. Kruskal-Wallis test was used. ns, not significant. […] Engraft % was determined by % of hCD45+/mCD45− cells within total viable spleen mononuclear cells. hCD45+ count was determined by direct quantification of hCD45+/mCD45− cells within a set volume of spleen harvest using flow cytometry. Each dot represents a unique mouse. Control (n=6), VEN+AZA(n=6), CdA(n=6), VEN+AZA+CdA(n=6). Box plots represent median+/−interquartile. Kruskal-Wallis test was used. ns, not significant. […]
(§3) Freshly sorted m-LSCs from primary AMLs or prepared CD34+ HSPCs isolated from normal mobilized peripheral samples were plated in human methylcellulose (R&D systems) at about 100 K/ml and 2 K/ml, respectively. […] Colonies were counted 2-3 weeks after the initial plating.

normal CD34+ HSPCs = assay: Colony-forming unit (CFU) assay on normal CD34+ HSPCs; type: cell-based, human; conditions: normal CD34+ HSPCs from two healthy donors
Experimental: as §2, §3

[1] = tested on: monocytic subpopulation of engrafted AML cells; assay: Flow analysis of residual engrafted human cells after in vivo treatment; parameters: species or system human AML in NSG-S mice
Experimental: as §1
NSG-S (NOD.Cg-Prkdcscid Il2rgtm1Wjl Tg(CMV-IL3,CSF2,KITLG)1Eav/MloySzJ) mice (The Jackson Laboratory) were used for xenograft studies in this study. Male or female mice ranging in age from 6 to 8 weeks were started on experiment. Littermates of the same sex were randomly assigned to experimental groups. NSG-S mice were pre-conditioned 24 hours prior to transplant with 30 mg/kg busulfan (Alfa Acsar) via intraperitoneal (IP) injection. The busulfan stock was made fresh at 25 mg/ml in 100% DMSO, then the stock was diluted 1:10 in pre-warmed saline (0.9% NaCl) down to 2.5 mg/ml right before use. The diluted busulfan solution was kept in 37 °C water bath before IP injection to prevent precipitation of busulfan due to low solubility. […]
About 2-4 weeks post initial transplant, tumor burden in the bone marrow was determined to be above 5% in sentinel mice. […]

AML patients = conditions: cited from earlier work

SMILES: Nc1nc(Cl)nc2c1ncn2[C@H]1C[C@@H](O)[C@@H](CO)O1 (stereo in doubt) [CdA, 5-(6-Amino-2-chloro-purin-9-yl)-2-(hydroxymethyl)oxolan-3-ol]
- potency against m-LSCs, CdA versus BRQ and MTX (m-LSCs): outperformed BRQ and MTX in potency against m-LSCs
- effect on CFU potential / specificity against m-LSCs (m-LSCs; m-LSCs isolated from AML specimens): remarkable specificity against m-LSCs
- effect on CFU potential (sparing) (p-LSCs): sparing p-LSCs
- effect on CFU potential (sparing) (normal CD34+ HSPCs): sparing p-LSCs as well as normal HSPC controls
- clearance of the monocytic subpopulation [1]: targeted the monocytic counterpart

SMILES: Cc1c(-c2ccc(-c3ccccc3F)cc2)nc2ccc(F)cc2c1C(=O)O [BRQ, 6-fluoro-2-(2′-fluoro-1,1′-biphenyl-4-yl)-3-methyl-4-quinolinecarboxylic acid]
- potency against m-LSCs, CdA versus BRQ and MTX (m-LSCs): CdA also outperformed BRQ and MTX in potency against m-LSCs

SMILES: CN(Cc1cnc2nc(N)nc(N)c2n1)c1ccc(C(=O)N[C@@H](CCC(=O)O)C(=O)O)cc1 [MTX, (28)-2-[(4-{[(2,4-Diaminopteridin-6-yl)methyl](methyl)amino}benzoyl)amino]pentanedioic acid]
- potency against m-LSCs, CdA versus BRQ and MTX (m-LSCs): CdA also outperformed BRQ and MTX in potency against m-LSCs

SMILES: Nc1ccn([C@@H]2O[C@H](CO)[C@@H](O)[C@@H]2O)c(=O)n1 [cytarabine, 4-amino-1-[(2R,3S,4S,5R)-3,4-dihydroxy-5-(hydroxymethyl)oxolan-2-yl]pyrimidin-2-one]
- selectivity for m-LSCs over p-LSCs and normal HSPCs (m-LSCs): selectivity was not seen

SMILES: COc1cccc2c1C(=O)c1c(O)c3c(c(O)c1C2=O)C[C@@](O)(C(C)=O)C[C@@H]3O[C@H]1C[C@H](N)[C@H](O)[C@H](C)O1 [daunorubicin]
- selectivity for m-LSCs over p-LSCs and normal HSPCs (m-LSCs): selectivity was not seen

SMILES: CC1(C)CCC(CN2CCN(c3ccc(C(=O)NS(=O)(=O)c4ccc(NCC5CCOCC5)c([N+](=O)[O-])c4)c(Oc4cnc5[nH]ccc5c4)c3)CC2)=C(c2ccc(Cl)cc2)C1 [venetoclax, 4-(4-{[2-(4-Chlorophenyl)-4,4-dimethyl-1-cyclohexen-1-yl]methyl}-1-piperazinyl)-N-({3-nitro-4-[(tetrahydro-2H-pyran-4-ylmethyl)amino]phenyl}sulfonyl)-2-(1H-pyrrolo[2,3-b]pyridin-5-yloxy)benzamide]
- responses to venetoclax in combination with backbone chemotherapy (AML patients; older previously untreated AML patients): 60-70%
- CR/CRi and MRD negativity rates (AML patients; venetoclax combined with chemotherapy regimens FLAG-Ida, CLIA or Clad-LDAC/AZA, recent clinical trials): superior CR/CRi and MRD negativity rates
